16 molecules from publication PMC8011931, “Identification, Structure–Activity Relationship, and Biological Characterization of 2,3,4,5-Tetrahydro-1H-pyrido[4,3-b]indoles as a Novel Class of CFTR Potentiators” (Journal of Medicinal Chemistry, 2020) can be followed below.

Molecules are shown by their SMILES.

In this experiment the target is F508del-CFTR (Homo sapiens, UniProt P13569, DEL508-508). Description: HS-YFP-based assay for CFTR activity on F508del-CFTR FRT cells rescued at 32 °C for 24 h. In kind it is cell-based. Set-up: expressed in transfected cells; key to Emax: fold increase in F508del-CFTR rescue relative to hit 3 (normalized). The note with it: for EC50: F508del-CFTR FRT cells rescued at 32 °C for 24 h, plus forskolin; for EC50 / Emax (FRT F508del-CFTR): mean ± SD (n = 3–6), n.a.: not active (up to 20 μM); for Emax: supplementary csv, same data as Tables 1–3; for Emax (FRT F508del-CFTR): normalized for the activity of analogue 3. Here is the method:
The chemical library was screened in duplicate on a Fischer rat thyroid (FRT) cell line, stably coexpressing F508del-CFTR and the halide-sensitive yellow fluorescent protein, HS-YFP.[23],[34],[35] To overcome the F508del trafficking defect, cells were initially incubated for 24 h at 32 °C and then acutely treated (15–30 min) with a single compound (5 μM) in combination with forskolin (10 μM). After stimulation, the F508del-CFTR activity in the plasma membrane was calculated by measuring the rate of fluorescence quenching arising from iodide influx.[34] This activity was compared to that of wells containing forskolin alone (negative control) or forskolin plus VX-770 (1 μM, as a positive control) (Figure 2A). Analysis of screening performance with the Z′ method gave a score of 0.6, which can be considered optimal for this type of assay. The activity scores for each compound were then plotted as an ordered distribution (Figure 2B). All compounds whose average activity calculated from the two rounds of screening was greater than 185% with respect to the negative control (i.e., forskolin alone) were considered as primary hits.
The primary hits were confirmed by testing them at different concentrations, in order to extrapolate the dose–response relationship. First, we focused on the F508del mutant. The compounds were tested in the low micromolar range, in the presence of forskolin (10 μM), on F508del-CFTR FRT cells following rescue of the trafficking defect by low-temperature incubation, as done for the primary screening. The most interesting hits were subsequently tested for their ability to overcome the more severe gating defect of pure class III mutant using FRT cells stably expressing G551D-CFTR (Figure 3B).
The role of the heteroaryl group (A) acylating the position 2 of the tetrahydro-γ-carboline was initially explored by modifying the substituent on the pyrazolyl residue and replacing the pyrazole with other rings, while keeping the 8-methoxy carboline moiety unmodified. The activity of each compound is described in terms of normalized maximal efficacy (Emax), the maximum fold increase in the rescue of F508del-CFTR activity with respect to hit 3, and potency (EC50), the concentration producing half-maximal efficacy.
FRT cells stably expressing mutant F508del-CFTR or G551D-CFTR and the halide-sensitive yellow fluorescent protein (HS-YFP) YFP-H148Q/I152L and CFBE41o-cells stably expressing F508del-CFTR and HS-YFP were generated as previously described.[21],[57] FRT cells were cultured using the Coon’s modification of Ham’s F12 medium, while CFBE41o-cells were cultured in the modified Eagle’s medium. Media were supplemented with 10% fetal calf serum, 2 mM L-glutamine, 100 U/mL of penicillin, and […] of streptomycin. For functional assays of CFTR activity based on the HS-YFP assays, CFBE41o- or FRT cells were plated (50,000 cells/well) on clear-bottom 96-well black microplates (Corning Life Sciences, Acton, MA). The following day, cells were assayed. In the case of FRT cells expressing F508del-CFTR, plates were kept at 32 °C (or treated with correctors at 37 °C where indicated) for an additional 24 h to rescue the mutant trafficking defect, before assays.
Prior assay, cells were washed with phosphate-buffered saline (PBS) containing (in mM) 137 NaCl, 2.7 KCl, 8.1 Na2HPO4, 1.5 KH2PO4, 1 CaCl2, and 0.5 MgCl2. Cells were then incubated for 25 min with 60 μL of PBS plus forskolin (20 μM) and test compounds (at the desired concentration) to stimulate mutant CFTR. Cells were then transferred to microplate readers (FluoStar Optima; BMG Labtech, Offenburg, Germany) for CFTR activity determination. The plate readers were equipped with high-quality excitation (HQ500/20X: 500 ± 10 nm) and emission (HQ535/30M: 535 ± 15 nm) filters for YFP (Chroma Technology). […]

A word on the EC50: it is the concentration at which the effect is half-maximal.

F508del-CFTR, sequence (P13569 with tags, fused parts or gaps DEL508-508): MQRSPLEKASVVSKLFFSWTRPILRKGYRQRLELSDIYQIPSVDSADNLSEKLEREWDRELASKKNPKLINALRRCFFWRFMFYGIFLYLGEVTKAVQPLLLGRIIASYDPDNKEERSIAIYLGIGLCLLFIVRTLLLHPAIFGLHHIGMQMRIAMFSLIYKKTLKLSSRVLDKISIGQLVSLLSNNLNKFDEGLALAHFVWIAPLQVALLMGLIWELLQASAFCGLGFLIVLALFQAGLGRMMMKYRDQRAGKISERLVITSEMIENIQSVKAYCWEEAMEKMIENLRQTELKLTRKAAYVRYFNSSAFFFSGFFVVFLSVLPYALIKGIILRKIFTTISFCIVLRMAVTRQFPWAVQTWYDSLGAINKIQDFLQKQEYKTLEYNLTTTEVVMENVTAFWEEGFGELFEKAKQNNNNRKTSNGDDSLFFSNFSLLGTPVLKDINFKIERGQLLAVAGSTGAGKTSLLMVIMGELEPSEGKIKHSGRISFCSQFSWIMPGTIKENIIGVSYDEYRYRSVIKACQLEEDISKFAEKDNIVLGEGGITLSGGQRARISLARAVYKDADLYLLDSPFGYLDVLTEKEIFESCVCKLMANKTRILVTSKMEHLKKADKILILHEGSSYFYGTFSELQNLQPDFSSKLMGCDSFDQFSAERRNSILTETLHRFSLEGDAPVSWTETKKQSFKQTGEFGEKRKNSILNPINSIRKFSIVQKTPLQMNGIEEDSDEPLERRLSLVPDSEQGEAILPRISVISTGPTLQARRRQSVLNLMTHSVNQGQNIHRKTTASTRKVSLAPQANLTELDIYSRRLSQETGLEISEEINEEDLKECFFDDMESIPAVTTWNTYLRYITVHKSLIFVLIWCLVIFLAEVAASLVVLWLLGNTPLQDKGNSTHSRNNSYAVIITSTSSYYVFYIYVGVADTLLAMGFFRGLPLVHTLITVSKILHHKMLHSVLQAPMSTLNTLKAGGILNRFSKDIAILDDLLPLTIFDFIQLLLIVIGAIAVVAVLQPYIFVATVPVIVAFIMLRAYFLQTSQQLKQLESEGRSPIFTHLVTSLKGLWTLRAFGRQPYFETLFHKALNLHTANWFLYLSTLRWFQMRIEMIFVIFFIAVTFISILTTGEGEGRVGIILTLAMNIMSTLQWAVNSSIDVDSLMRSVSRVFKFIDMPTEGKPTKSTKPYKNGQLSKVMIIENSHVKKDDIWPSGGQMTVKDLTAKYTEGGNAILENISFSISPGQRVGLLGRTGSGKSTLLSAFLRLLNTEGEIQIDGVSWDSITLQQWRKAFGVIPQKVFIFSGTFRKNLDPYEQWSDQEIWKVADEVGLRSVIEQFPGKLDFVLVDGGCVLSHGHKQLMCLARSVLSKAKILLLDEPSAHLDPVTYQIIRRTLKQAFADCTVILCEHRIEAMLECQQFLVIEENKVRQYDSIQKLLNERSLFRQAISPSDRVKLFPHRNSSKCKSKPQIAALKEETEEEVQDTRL

Consider `Cc1cccc2[nH]c3c(c12)CN(C(=O)c1cc(C(F)(F)F)[nH]n1)CC3` [Compound 15, (9-Methyl-1,3,4,5-tetrahydro-2H-pyrido[4,3-b]indol-2-yl)-(5-(trifluoromethyl)-1H-pyrazol-3-yl)methanone], for which the EC50 stood at 0.48 ± 0.12 µM and the Emax amounted to 0.83 ± 0.09.

As for `Cc1ccc2c3c([nH]c2c1)CCN(C(=O)c1cc(C(F)(F)F)[nH]n1)C3` [Compound 16, (7-Methyl-1,3,4,5-tetrahydro-2H-pyrido[4,3-b]indol-2-yl)-(5-(trifluoromethyl)-1H-pyrazol-3-yl)methanone], the EC50 came out at 0.2 ± 0.06 µM and the Emax is reported as 0.22 ± 0.04.

Take `Cc1cccc2c3c([nH]c12)CCN(C(=O)c1cc(C(F)(F)F)[nH]n1)C3` [Compound 17, (6-Methyl-1,3,4,5-tetrahydro-2H-pyrido[4,3-b]indol-2-yl)-(5-(trifluoromethyl)-1H-pyrazol-3-yl)methanone]: the EC50 is 1.14 ± 0.13 µM and the Emax was 1.0 ± 0.08.

With `CC(C)c1ccc2[nH]c3c(c2c1)CN(C(=O)c1cc(C(F)(F)F)[nH]n1)CC3` [Compound 18, (8-Isopropyl-1,3,4,5-tetrahydro-2H-pyrido[4,3-b]indol-2-yl)-(5-(trifluoromethyl)-1H-pyrazol-3-yl)methanone], the half-maximal effective concentration (EC50) is 1.4 ± 0.9 µM and the Emax is 0.69 ± 0.09.

With `O=C(c1cc(C(F)(F)F)[nH]n1)N1CCc2[nH]c3ccc(F)cc3c2C1` [Compound 19, (8-Fluoro-1,3,4,5-tetrahydro-2H-pyrido[4,3-b]indol-2-yl)(5-(trifluoromethyl)-1H-pyrazol-3-yl)methanone], the 50% effective concentration (EC50) was found to be 0.48 ± 0.05 µM and the Emax turned out to be 0.97 ± 0.11.

Regarding `O=C(c1cc(C(F)(F)F)[nH]n1)N1CCc2[nH]c3ccc(C(F)(F)F)cc3c2C1` [Compound 21, (8-(Trifluoromethyl)-1,3,4,5-tetrahydro-2H-pyrido[4,3-b]indol-2-yl)-(5-(trifluoromethyl)-1H-pyrazol-3-yl)methanone], the EC50 worked out at 0.44 ± 0.06 µM and the Emax is given as 0.95 ± 0.04.

With `O=C(c1cc(C(F)(F)F)[nH]n1)N1CCc2[nH]c3ccc(OC(F)(F)F)cc3c2C1` [Compound 22, (8-(Trifluoromethoxy)-1,3,4,5-tetrahydro-2H-pyrido[4,3-b]indol-2-yl)-(5-(trifluoromethyl)-1H-pyrazol-3-yl)methanone], the 50% effective concentration (EC50) is 0.16 ± 0.03 µM, the “Emax (FRT F508del-CFTR)” value came out at 0.89 ± 0.03 and the Emax is 0.89 ± 0.03.

`N#Cc1ccc2[nH]c3c(c2c1)CN(C(=O)c1cc(C(F)(F)F)[nH]n1)CC3` [Compound 23, 2-(5-(Trifluoromethyl)-1H-pyrazole-3-carbonyl)-2,3,4,5-tetrahydro-1H-pyrido[4,3-b]indole-8-carbonitrile]: the EC50 was 1.9 ± 0.2 µM and the Emax worked out at 0.75 ± 0.11.

Consider `CS(=O)(=O)c1ccc2[nH]c3c(c2c1)CN(C(=O)c1cc(C(F)(F)F)[nH]n1)CC3` [Compound 24, (8-(Methylsulfonyl)-1,3,4,5-tetrahydro-2H-pyrido[4,3-b]indol-2-yl)-(5-(trifluoromethyl)-1H-pyrazol-3-yl)methanone], for which the EC50 turned out to be 10.5 ± 2.2 µM and the Emax is reported as 0.28 ± 0.04.

For `Cc1cc(F)c2[nH]c3c(c2c1)CN(C(=O)c1cc(C(F)(F)F)[nH]n1)CC3` [Compound 26, (6-Fluoro-8-methyl-1,3,4,5-tetrahydro-2H-pyrido[4,3-b]indol-2-yl)-(5-(trifluoromethyl)-1H-pyrazol-3-yl)methanone], the EC50 is 0.23 ± 0.08 µM and the Emax amounted to 0.70 ± 0.02.

`O=C(c1cc(C(F)(F)F)[nH]n1)N1CCc2[nH]c3c(F)cc(F)cc3c2C1` [Compound 27, (6,8-Difluoro-1,3,4,5-tetrahydro-2H-pyrido[4,3-b]indol-2-yl)-(5-(trifluoromethyl)-1H-pyrazol-3-yl)methanone]: the EC50 turned out to be 0.15 ± 0.07 µM and the Emax worked out at 0.66 ± 0.12.

Consider `O=C(c1cc(C(F)(F)F)[nH]n1)N1CCc2[nH]c3c(F)cc(C(F)(F)F)cc3c2C1` [Compound 28, (6-Fluoro-8-trifluoromethyl-1,3,4,5-tetrahydro-2H-pyrido[4,3-b]indol-2-yl)-(5-(trifluoromethyl)-1H-pyrazol-3-yl)methanone], for which the EC50 amounted to 0.57 ± 0.14 µM and the Emax came out at 0.94 ± 0.13. Besides, the “fold drop in potency with respect to 20” value (EC50, F508del-CFTR FRT cells) was 6 fold.

Take `Cc1ccc(F)c2c3c([nH]c12)CCN(C(=O)c1cc(C(F)(F)F)[nH]n1)C3` [Compound 31, (9-Fluoro-6-methyl-1,3,4,5-tetrahydro-2H-pyrido[4,3-b]indol-2-yl)(5-(trifluoromethyl)-1H-pyrazol-3-yl)methanone]: the concentration for a half-maximal effect (EC50) was found to be 0.94 ± 0.25 µM and the Emax is given as 0.65 ± 0.08. For the same molecule, the “fold decrease (drop) in potency with respect to 30” value (EC50, F508del-CFTR FRT cells) is “more than 15 fold”.

With `Cc1ccc(F)c2[nH]c3c(c12)CN(C(=O)c1cc(C(F)(F)F)[nH]n1)C(C)(C)C3` [Compound 34, (6-Fluoro-3,3,9-trimethyl-1,3,4,5-tetrahydro-2H-pyrido[4,3-b]indol-2-yl)-(5-(trifluoromethyl)-1H-pyrazol-3-yl)methanone], the EC50 was 1.91 ± 0.26 µM, the “Emax (FRT F508del-CFTR)” value is 0.79 ± 0.13 and the Emax is reported as 0.79 ± 0.13.

Turning to `Cc1ccc(F)c2[nH]c3c(c12)CCN(C(=O)c1cc(C(F)(F)F)[nH]n1)CC3` [Compound 38, (7-Fluoro-10-methyl-1,4,5,6-tetrahydroazepino[4,5-b]indol-3(2H)-yl)-(5-(trifluoromethyl)-1H-pyrazol-3-yl)methanone], the EC50 came to 2.3 ± 0.3 µM and the Emax was determined as 0.93 ± 0.16. Also, the “fold decrease (drop) in potency with respect to 30” value (EC50, F508del-CFTR FRT cells) was 38 fold.

Take `Cc1ccc(F)c2[nH]c3c(c12)CN(C(=O)c1cc(C(F)(F)F)[nH]n1)[C@@H](C)C3` [Compound 40, (S)-(6-Fluoro-3,9-dimethyl-1,3,4,5-tetrahydro-2H-pyrido[4,3-b]indol-2-yl)-(5-(trifluoromethyl)-1H-pyrazol-3-yl)methanone]: the half-maximal effective concentration (EC50) was 1.1 ± 0.2 µM, the “Emax (FRT F508del-CFTR)” value is 1.31 ± 0.18 and the Emax worked out at 1.31 ± 0.18.
